System: dogs
Assay: Myocardial tissue oxygen pressure and pH during cardiac (ventricular) fibrillation in bupivacaine and sham treated dogs
Assay type: in vivo, dog
Method: Non-purpose bred male hounds (22-26 kg) were used. Dogs were fasted overnight. On the day of the example, the dog was anesthetized with 5 mg/kg propofol, intubated and ventilated with 1.5% isoflurane and inspired oxygen concentration of 30%. Catheters were inserted into the femoral artery for blood pressure recording and blood gas sampling, and the femoral vein for fluid and drug administration. Sterile saline was infused intravenously (4 ml·kg^−1·hr^−1) for fluid maintenance.
An incision was made along the left 5th intercostal space and the left ventricle exposed. A Paratrend tissue probe (Codman Inc, Newark, N.J.) was calibrated on the day of the study using precision gases. The probe was 0.5 mm in diameter and 2 sensors measuring myocardial tissue oxygen pressure (PmO2) and myocardial pH (pHm) were contained in the final 2 cm. The void surrounding the pHm sensor was filled with acrylamide gel containing phenol red. Changes in hydrogen ion concentration produce color changes in phenol red, which can be detected by the pH fiber optic sensor. A fluorescence method was used to measure the partial pressure of dissolved or gaseous oxygen for the fiber optic PmO2 sensor. The 0%-90% response times for the PmO2 and pHm sensors were 78 s and 70 s, respectively. The probe was inserted into the myocardium in the region between the first and second diagonal branch of the left anterior descending coronary artery, parallel to the surface of the heart 6 mm below the surface using an 18 gauge angiocatheter as an introducer. Mechanical ventilation was adjusted to maintain arterial pCO2 at 35±2 mmHg and inspired oxygen concentration was maintained at 30%, with the balance nitrogen. Body temperature was maintained at 38° C. using a warming pad.
After equilibration of the myocardial tissue probe for 45 minutes, baseline measures of mean arterial pressure (MAP), heart rate, pmO2 and pHm were recorded and an arterial blood gas sample was measured. Each dog received an intravenous infusion of 10 mg/kg bupivacaine over 10 seconds. […] In a preliminary study (early lipid, EL), intervention at the onset of circulatory collapse included an intravenous infusion of either soy lipid emulsion (Intralipid 20%, Fresenius Kabi Clayton, Clayton, N.C.) n=3, or saline, n=3, each administered as a 4 ml/kg bolus (over 2 minutes), followed by a continuous infusion of 0.5 ml·kg^−1·min^−1 for 10 minutes. The protocol was subsequently modified to better simulate a clinical setting, where the start of the infusion might be delayed by several minutes. In this protocol (delayed lipid, DL), internal cardiac massage alone was continued for 10 minutes, then infusion of either the lipid emulsion (n=6) or saline (n=6) was begun as described above. If sinus rhythm returned, internal cardiac massage was continued until MAP reached 30 mmHg and recovery measures of pmO2 and pHm were recorded when blood pressure returned to within 10% of baseline levels. Dogs were killed at the end of the study using a euthanasia solution. The investigators were not blinded to treatment arm.
Data are reported for the DL experiments as mean±SD. pmO2 and pHm were compared between baseline and subsequent treatments within each group using repeated measures analysis of variance with Tukey's tests for post-hoc comparisons. Differences between groups for each treatment were compared by Student's t-test. The proportion of animals surviving bupivacaine challenge in each group was compared in the DL experiment using a z-test. Significance was taken as p<0.05.
There were no significant differences between groups. […] Tissue pH decreased a similar amount in half the time in sham treated dogs, and the rate of pH decrease was greater in these dogs compared to bupivacaine treated dogs.
In four dogs per group, PmO2 and pHm were allowed to decrease for 15 minutes of cardiac fibrillation at the end of the study.

[1] = dogs made hypotensive by treatment with bupivacaine
[2] = during cardiac fibrillation, mean ± SD
[3] = during cardiac fibrillation, mean ± SD, P < 0.05 compared to sham

- cardiac tissue pO2 (intramyocardial probe) [1]: undetectable
Structure (SMILES): CCCCN1CCCCC1C(=O)Nc1c(C)cccc1C (stereo not drawn) [Bupivacaine, bupivacaine]
- rate of decrease in pHm, increase in PmCO2 and decrease in PmO2 compared to sham (15 minutes of cardiac fibrillation at the end of the study, four dogs per group, FIG. 1): rate of decrease in pHm and increase in PmCO2 was faster in sham treated dogs, but the rate of decrease in PmO2 was slower compared to bupivacaine treated dogs
- acidosis in myocardial tissue (dogs made hypotensive by bupivacaine, prolonged hypotension, hypoperfusion and cardiac tissue hypoxia): do not develop the expected acidosis in myocardial tissue
- systemic blood pressure (BP) after bupivacaine [1]: < 40 mmHg
- PH decrease (myocardial tissue) [2]: 0.31 ± 0.08
- PmO2 decrease [2]: 52 ± 16 mmHg
- Rate of decrease (PmO2) [2]: 22 ± 5 mmHg/min
- Time (of PmO2 decrease) [2]: 2.5 ± 0.9 min
- Rate of Decrease (myocardial pH) [3]: 0.02 ± 0.01 min − 1
- Time (of pH decrease) [3]: 13.8 ± 5.1 min
- rate of decrease in PmO2 compared to sham treated dogs (ventricular fibrillation, Table 2 experiment): higher rate in bupivacaine treated compared to sham treated dogs, but this difference was not significant
- factor by which the rate of decrease in pH during fibrillation was reduced (ventricular fibrillation, versus sham): four

Reference: patent US20060166182A1, “Tissue and organ preservation, protection and resuscitation” (The Board of Trustees of the University of Ilinois a body …, priority 2002, published 2006)
